{"source": "patent US4048320A", "about": "“Penicillins” (Beecham Group Limited, priority 1975, dated 1977)", "assay_type_in_all_cases": "cell-based", "key": {"Klebsiella aerogenes": {"test_system": "Klebsiella aerogenes", "experiment": "MIC by serial dilution in nutrient agar"}, "E. coli": {"test_system": "E. coli", "experiment": "MIC by serial dilution in nutrient agar", "conditions": "Escherichia coli"}, "Serratia marcescens": {"test_system": "Serratia marcescens", "experiment": "MIC by serial dilution in nutrient agar"}, "P. vulgaris": {"test_system": "P. vulgaris", "experiment": "MIC by serial dilution in nutrient agar", "conditions": "Proteus vulgaris"}, "Citrobacter freundii": {"test_system": "Citrobacter freundii", "experiment": "MIC by serial dilution in nutrient agar"}, "Proteus mirabilis": {"test_system": "Proteus mirabilis", "experiment": "MIC by serial dilution in nutrient agar"}, "E. cloacae": {"test_system": "E. cloacae", "experiment": "MIC by serial dilution in nutrient agar", "conditions": "Enterobacter cloacae"}, "P. morganii": {"test_system": "P. morganii", "experiment": "MIC by serial dilution in nutrient agar"}, "P. rettgeri": {"test_system": "P. rettgeri", "experiment": "MIC by serial dilution in nutrient agar", "conditions": "Providencia rettgeri"}, "Enterobacter aerogenes": {"test_system": "Enterobacter aerogenes", "experiment": "MIC by serial dilution in nutrient agar", "conditions": "Klebsiella aerogenes"}, "Streptococcus faecalis": {"test_system": "Streptococcus faecalis", "experiment": "MIC by serial dilution in nutrient agar"}, "[1]": {"test_system": "a range of Gram-negative bacteria and Strep. Faecalis", "experiment": "Microbiological evaluation, comparison of MIC values of the two compounds (Table I)", "conditions": "from MIC values of Table I"}, "[2]": {"conditions": "Klebsiella aerogenes strain B195R+"}, "[3]": {"conditions": "Klebsiella aerogenes strain E70"}, "[4]": {"conditions": "Klebsiella aerogenes strain I229"}, "[5]": {"conditions": "Klebsiella aerogenes strain I281"}, "[6]": {"conditions": "Klebsiella aerogenes strain T312"}, "[7]": {"conditions": "E. coli strain JT1, read-out: MIC"}, "[8]": {"conditions": "E. coli strain JT39R+, read-out: MIC"}, "[9]": {"conditions": "E. coli strain JT56R+, read-out: MIC"}, "[10]": {"conditions": "E. coli strain JT68R+, read-out: MIC"}, "[11]": {"conditions": "E. coli strain JT103, read-out: MIC"}, "[12]": {"conditions": "E. coli strain JT147, read-out: MIC"}, "[13]": {"conditions": "E. coli strain JT454C+, read-out: MIC"}, "[14]": {"conditions": "E. coli strain JT460C+, read-out: MIC"}, "[15]": {"conditions": "Serratia marcescens strain US30"}, "[16]": {"conditions": "Serratia marcescens strain US39R+"}, "[17]": {"conditions": "Citrobacter freundii strain T745"}, "[18]": {"conditions": "Citrobacter freundii strain W18"}, "[19]": {"conditions": "Proteus mirabilis strain H-WF, read-out: MIC"}, "[20]": {"conditions": "Morganella morganii, P. morganii strain DU10, read-out: MIC"}, "[21]": {"conditions": "Enterobacter aerogenes strain T730"}, "[22]": {"conditions": "Enterobacter aerogenes strain T755"}, "[23]": {"conditions": "Enterococcus faecalis, Streptococcus faecalis strain Weaver, read-out: MIC"}, "[24]": {"conditions": "Streptococcus faecalis strain A"}, "[25]": {"conditions": "Streptococcus faecalis strain Page"}}, "note": "Where two headings read alike, the source gives them in different places."}
{"smiles": "COC1(NC(=O)C(C(=O)O)c2ccccc2)C(=O)N2C(C(=O)O)C(C)(C)SC21", "note": "(stereo not drawn) [6-methoxy carbenicillin, 6α-methoxy-6β-(2-carboxyphenylacetamido)penicillanic acid, reference compound]", "values": [{"measurement": "MIC", "setting": "Klebsiella aerogenes; [2]", "value": 25, "unit": "µg/mL"}, {"measurement": "MIC", "setting": "Klebsiella aerogenes; [3]", "value": 5, "unit": "µg/mL"}, {"measurement": "MIC", "setting": "Klebsiella aerogenes; [4]", "value": 12.5, "unit": "µg/mL"}, {"measurement": "MIC", "setting": "Klebsiella aerogenes; [5]", "value": 12.5, "unit": "µg/mL"}, {"measurement": "MIC", "setting": "Klebsiella aerogenes; [6]", "value": 12.5, "unit": "µg/mL"}, {"measurement": "MIC", "setting": "E. coli; [7]", "value": 5, "unit": "µg/mL"}, {"measurement": "MIC", "setting": "E. coli; E. coli strain JT2OR+", "value": 5, "unit": "µg/mL"}, {"measurement": "MIC", "setting": "E. coli; [8]", "value": 12.5, "unit": "µg/mL"}, {"measurement": "MIC", "setting": "E. coli; [9]", "value": 12.5, "unit": "µg/mL"}, {"measurement": "MIC", "setting": "E. coli; [10]", "value": 12.5, "unit": "µg/mL"}, {"measurement": "MIC", "setting": "E. coli; [11]", "value": 5, "unit": "µg/mL"}, {"measurement": "MIC", "setting": "E. coli; [12]", "value": 12.5, "unit": "µg/mL"}, {"measurement": "MIC", "setting": "E. coli; [13]", "value": 5, "unit": "µg/mL"}, {"measurement": "MIC", "setting": "E. coli; [14]", "value": 12.5, "unit": "µg/mL"}, {"measurement": "MIC", "setting": "Serratia marcescens; Serratia marcescens strain US1", "value": 5, "unit": "µg/mL"}, {"measurement": "MIC", "setting": "Serratia marcescens; [15]", "value": 12.5, "unit": "µg/mL"}, {"measurement": "MIC", "setting": "Serratia marcescens; [16]", "value": 5, "unit": "µg/mL"}, {"measurement": "MIC", "setting": "P. vulgaris; P. vulgaris strain C", "value": "< 0.5", "unit": "µg/mL"}, {"measurement": "MIC", "setting": "P. vulgaris; P. vulgaris strain I", "value": 5, "unit": "µg/mL"}, {"measurement": "MIC", "setting": "P. vulgaris; P. vulgaris strain K", "value": 12.5, "unit": "µg/mL"}, {"measurement": "MIC", "setting": "Citrobacter freundii; [17]", "value": 5, "unit": "µg/mL"}, {"measurement": "MIC", "setting": "Citrobacter freundii; [18]", "value": 12.5, "unit": "µg/mL"}, {"measurement": "MIC", "setting": "Proteus mirabilis; Proteus mirabilis strain BS66", "value": 5.0, "unit": "µg/mL"}, {"measurement": "MIC", "setting": "Proteus mirabilis; Proteus mirabilis strain CT13", "value": 5.0, "unit": "µg/mL"}, {"measurement": "MIC", "setting": "Proteus mirabilis; [19]", "value": 5, "unit": "µg/mL"}, {"measurement": "MIC", "setting": "Proteus mirabilis; Proteus mirabilis strain T251", "value": 5.0, "unit": "µg/mL"}, {"measurement": "MIC", "setting": "E. cloacae; E. cloacae strain T629", "value": 5, "unit": "µg/mL"}, {"measurement": "MIC", "setting": "E. cloacae; E. cloacae strain T763", "value": 5, "unit": "µg/mL"}, {"measurement": "MIC", "setting": "P. morganii; [20]", "value": 5, "unit": "µg/mL"}, {"measurement": "MIC", "setting": "P. morganii; P. morganii strain DU718", "value": 5.0, "unit": "µg/mL"}, {"measurement": "MIC", "setting": "P. rettgeri; P. rettgeri strain B", "value": 5, "unit": "µg/mL"}, {"measurement": "MIC", "setting": "P. rettgeri; P. rettgeri strain I", "value": 5, "unit": "µg/mL"}, {"measurement": "MIC", "setting": "P. rettgeri; P. rettgeri strain R110", "value": 5, "unit": "µg/mL"}, {"measurement": "MIC", "setting": "Enterobacter aerogenes; [21]", "value": 5, "unit": "µg/mL"}, {"measurement": "MIC", "setting": "Enterobacter aerogenes; [22]", "value": 5, "unit": "µg/mL"}, {"measurement": "MIC", "setting": "Streptococcus faecalis; [23]", "value": "> 500", "unit": "µg/mL"}, {"measurement": "MIC", "setting": "Streptococcus faecalis; [24]", "value": "> 500", "unit": "µg/mL"}, {"measurement": "MIC", "setting": "Streptococcus faecalis; [25]", "value": "> 500", "unit": "µg/mL"}]}
{"smiles": "COC1(NC(=O)C(C(=O)O)c2ccsc2)C(=O)N2C(C(=O)O)C(C)(C)SC21", "note": "[6-methoxy ticarcillin, 6-β-(D,L-2-Carboxy-2-thien-3'-ylacetamido)-6-α-methoxypenicillanic acid]", "values": [{"measurement": "MIC", "setting": "Klebsiella aerogenes; [2]", "value": 5, "unit": "µg/mL"}, {"measurement": "MIC", "setting": "Klebsiella aerogenes; [3]", "value": 2.5, "unit": "µg/mL"}, {"measurement": "MIC", "setting": "Klebsiella aerogenes; [4]", "value": 5, "unit": "µg/mL"}, {"measurement": "MIC", "setting": "Klebsiella aerogenes; [5]", "value": 5, "unit": "µg/mL"}, {"measurement": "MIC", "setting": "Klebsiella aerogenes; [6]", "value": 5, "unit": "µg/mL"}, {"measurement": "MIC", "setting": "E. coli; [7]", "value": 2.5, "unit": "µg/mL"}, {"measurement": "MIC", "setting": "E. coli; E. coli strain JT2OR+", "value": 5, "unit": "µg/mL"}, {"measurement": "MIC", "setting": "E. coli; [8]", "value": 5, "unit": "µg/mL"}, {"measurement": "MIC", "setting": "E. coli; [9]", "value": 5, "unit": "µg/mL"}, {"measurement": "MIC", "setting": "E. coli; [10]", "value": 5, "unit": "µg/mL"}, {"measurement": "MIC", "setting": "E. coli; [11]", "value": 2.5, "unit": "µg/mL"}, {"measurement": "MIC", "setting": "E. coli; [12]", "value": 5, "unit": "µg/mL"}, {"measurement": "MIC", "setting": "E. coli; [13]", "value": 5, "unit": "µg/mL"}, {"measurement": "MIC", "setting": "E. coli; [14]", "value": 5, "unit": "µg/mL"}, {"measurement": "MIC", "setting": "Serratia marcescens; Serratia marcescens strain US1", "value": 2.5, "unit": "µg/mL"}, {"measurement": "MIC", "setting": "Serratia marcescens; [15]", "value": 5, "unit": "µg/mL"}, {"measurement": "MIC", "setting": "Serratia marcescens; [16]", "value": 2.5, "unit": "µg/mL"}, {"measurement": "MIC", "setting": "P. vulgaris; P. vulgaris strain C", "value": "< 0.5", "unit": "µg/mL"}, {"measurement": "MIC", "setting": "P. vulgaris; P. vulgaris strain I", "value": 2.5, "unit": "µg/mL"}, {"measurement": "MIC", "setting": "P. vulgaris; P. vulgaris strain K", "value": 5, "unit": "µg/mL"}, {"measurement": "MIC", "setting": "Citrobacter freundii; [17]", "value": 2.5, "unit": "µg/mL"}, {"measurement": "MIC", "setting": "Citrobacter freundii; [18]", "value": 2.5, "unit": "µg/mL"}, {"measurement": "MIC", "setting": "Proteus mirabilis; Proteus mirabilis strain BS66", "value": 2.5, "unit": "µg/mL"}, {"measurement": "MIC", "setting": "Proteus mirabilis; Proteus mirabilis strain CT13", "value": 2.5, "unit": "µg/mL"}, {"measurement": "MIC", "setting": "Proteus mirabilis; [19]", "value": 2.5, "unit": "µg/mL"}, {"measurement": "MIC", "setting": "Proteus mirabilis; Proteus mirabilis strain T251", "value": 2.5, "unit": "µg/mL"}, {"measurement": "MIC", "setting": "E. cloacae; E. cloacae strain T629", "value": 2.5, "unit": "µg/mL"}, {"measurement": "MIC", "setting": "E. cloacae; E. cloacae strain T763", "value": 1.2, "unit": "µg/mL"}, {"measurement": "activity relative to the corresponding phenyl compound (6-methoxy carbenicillin)", "setting": "[1]", "value": "consistently two-fold more active"}, {"measurement": "MIC", "setting": "P. morganii; [20]", "value": 2.5, "unit": "µg/mL"}, {"measurement": "MIC", "setting": "P. morganii; P. morganii strain DU718", "value": 2.5, "unit": "µg/mL"}, {"measurement": "MIC", "setting": "P. rettgeri; P. rettgeri strain B", "value": 2.5, "unit": "µg/mL"}, {"measurement": "MIC", "setting": "P. rettgeri; P. rettgeri strain I", "value": 5, "unit": "µg/mL"}, {"measurement": "MIC", "setting": "P. rettgeri; P. rettgeri strain R110", "value": 2.5, "unit": "µg/mL"}, {"measurement": "MIC", "setting": "Enterobacter aerogenes; [21]", "value": 1.2, "unit": "µg/mL"}, {"measurement": "MIC", "setting": "Enterobacter aerogenes; [22]", "value": 2.5, "unit": "µg/mL"}, {"measurement": "MIC", "setting": "Streptococcus faecalis; [23]", "value": "> 500", "unit": "µg/mL"}, {"measurement": "MIC", "setting": "Streptococcus faecalis; [24]", "value": "> 500", "unit": "µg/mL"}, {"measurement": "MIC", "setting": "Streptococcus faecalis; [25]", "value": "> 500", "unit": "µg/mL"}]}
